Among the data in PMC7611204 (Molecular cancer therapeutics, 2020) are Kd and IC50 values, retold here.

The structures appear in SMILES notation.

Experiment [1] has as its target T1, serine hydroxymethyltransferase 2 (SHMT2) (Homo sapiens, UniProt P34897).
T1 sequence (P34897 30-504): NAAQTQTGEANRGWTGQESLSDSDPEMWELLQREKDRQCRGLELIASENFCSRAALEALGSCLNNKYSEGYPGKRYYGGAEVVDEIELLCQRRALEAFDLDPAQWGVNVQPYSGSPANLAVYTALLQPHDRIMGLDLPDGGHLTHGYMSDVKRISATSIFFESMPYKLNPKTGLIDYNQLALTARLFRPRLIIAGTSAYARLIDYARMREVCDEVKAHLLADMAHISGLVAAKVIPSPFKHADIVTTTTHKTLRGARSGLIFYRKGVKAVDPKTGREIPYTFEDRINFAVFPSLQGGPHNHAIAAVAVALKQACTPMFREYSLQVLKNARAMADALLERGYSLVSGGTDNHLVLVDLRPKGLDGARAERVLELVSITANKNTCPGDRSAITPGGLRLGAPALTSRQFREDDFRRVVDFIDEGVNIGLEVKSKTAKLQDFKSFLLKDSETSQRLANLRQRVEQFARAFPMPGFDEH
Nature of the experiment: microscale thermophoresis with labeled recombinant human SHMT2. The class given is binding. A general note: In MST a laser heats a spot of the sample, and binding alters the fluorescence response.

In experiment [2] the target is T2, phosphoglycerate dehydrogenase (PHGDH) (Homo sapiens, UniProt O43175).
T2 sequence (O43175 2-533): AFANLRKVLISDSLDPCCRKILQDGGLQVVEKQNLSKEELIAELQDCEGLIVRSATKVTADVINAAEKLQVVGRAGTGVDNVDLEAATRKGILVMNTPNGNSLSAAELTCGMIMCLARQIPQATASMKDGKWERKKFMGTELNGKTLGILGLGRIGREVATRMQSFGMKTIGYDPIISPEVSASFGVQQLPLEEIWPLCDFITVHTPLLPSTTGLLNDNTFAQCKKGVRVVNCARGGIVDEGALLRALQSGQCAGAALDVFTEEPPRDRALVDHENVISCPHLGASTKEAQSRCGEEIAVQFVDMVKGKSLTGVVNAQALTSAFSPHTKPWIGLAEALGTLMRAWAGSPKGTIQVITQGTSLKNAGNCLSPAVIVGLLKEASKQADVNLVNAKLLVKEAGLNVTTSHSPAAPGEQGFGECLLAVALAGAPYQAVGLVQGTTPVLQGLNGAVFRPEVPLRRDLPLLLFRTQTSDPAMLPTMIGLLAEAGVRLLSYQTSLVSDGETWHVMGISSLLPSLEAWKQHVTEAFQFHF

`CN[C@H]1CC[C@@H](c2ccc(Cl)c(Cl)c2)c2ccccc21` [sertraline]: in experiment [1], the Kd (usually the concentration at which binding is half-saturated) is 13.1 µM.

As for `C[CH2][Hg][S]c1ccccc1C(=O)O` [thimerosal], half-maximal inhibition in experiment [2] (IC50) required 0.152 µM.
